Values quoted from earlier work, collected in patent US20090304885A1, “Coffee and Tea Baking Compounds and Method of Producing The Same” (priority 2008, published 2009).

Columns and labels:
[1] = animal models
[2] = test system: methylazoxymethanol-induced large intestinal tumors; details: hamster

| SMILES | antibacterial effect (Serratia marcescens) | antibacterial effect (Enterobacter cloacae) | cancer preventive activities [1] | inhibition of tumors [2] |
| --- | --- | --- | --- | --- |
| Cn1c(=O)c2c(ncn2C)n(C)c1=O [caffeine] | particularly strong effect | particularly strong effect | – | – |
| O=C(O)c1ccc(O)c(O)c1 [protocatechuic acid] | particularly strong effect | particularly strong effect | – | – |
| O=C(O)/C=C/c1ccc(O)cc1 [para-coumaric acid] | – | – | exert cancer preventive activities | – |
| O=C(O)/C=C/c1ccc(O)c(O)c1 [caffeic acid] | – | – | exert cancer preventive activities | – |
| O=C(/C=C/c1ccc(O)c(O)c1)O[C@@H]1C[C@](O)(C(=O)O)C[C@@H](O)[C@H]1O [chlorogenic acid] | particularly strong effect | particularly strong effect | – | inhibit |
